Laboratory results reported in patent publication US11331299B2, “Medicinal use of serrulatane diterpenes” (The University of Sydney, priority 2016, dated 2022).
Like-named read-outs stand apart in the source and are kept apart here.

Tests used:
ATAD2B (h) bromodomain = molecular target: T1, ATAD2B (h) bromodomain (Homo sapiens, UniProt Q9ULI0); test: Epigenetic binding assay, Bromodomain; settings: 10 μM; read-out: % Inhibition of Control Specific Binding
T1 construct: ATAD2B bromodomain; host or cells: E. coli
T1 sequence (Q9ULI0 951-1066 limits assumed): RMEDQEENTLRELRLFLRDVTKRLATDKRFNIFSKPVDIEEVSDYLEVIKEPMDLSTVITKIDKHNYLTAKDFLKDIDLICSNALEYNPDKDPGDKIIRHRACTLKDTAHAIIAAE

PHF20(1) Tudor domain = molecular target: T2, PHF20(1) Tudor domain (Homo sapiens, UniProt Q9BVI0); test: Epigenetic binding assay, Tudor domain; settings: read-out: % Inhibition of Control Specific Binding
T2 construct: Crystal structures of the Tudor domains of human PHF20; Eurofins CEREP (France), contract laboratory
T2 sequence (Q9BVI0 4-69 limits assumed): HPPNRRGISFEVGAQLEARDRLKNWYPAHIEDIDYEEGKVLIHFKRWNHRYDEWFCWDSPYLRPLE

H3K27 me3 = test: Cell-based detection methyl modifications; settings: read-out: % Inhibition of Control Values
DNMT3b = DNMT3b (Homo sapiens, UniProt Q9UBC3); test: Epigenetic enzyme assay, DNA methyltransferases (DNMTs); type: biochemical; settings: for inhibition at 10 µM: read-out: % Inhibition of Control Values
HDAC1 (h) = HDAC1 (h) (Homo sapiens, UniProt Q13547); test: Epigenetic enzyme assay, Histone deacetylase (HDACs); type: biochemical; settings: read-out: % Inhibition of Control Values
[1] = molecular target: T3, Glycine N-methyltransferase (h) (Homo sapiens, UniProt Q14749); test: Epigenetic enzyme assay, Small molecule methyltransferases; type: biochemical; settings: read-out: % Inhibition of Control Values
T3 sequence (Q14749 1-295): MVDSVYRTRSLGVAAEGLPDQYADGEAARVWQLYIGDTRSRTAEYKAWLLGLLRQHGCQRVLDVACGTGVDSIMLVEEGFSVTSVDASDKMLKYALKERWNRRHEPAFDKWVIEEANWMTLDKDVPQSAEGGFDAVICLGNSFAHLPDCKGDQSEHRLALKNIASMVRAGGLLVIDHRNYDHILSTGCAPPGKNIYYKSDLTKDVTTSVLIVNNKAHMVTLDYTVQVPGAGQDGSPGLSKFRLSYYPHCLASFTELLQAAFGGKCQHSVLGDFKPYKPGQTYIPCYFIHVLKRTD

[2] = molecular target: T4, Thiopurine S-methyltransferase (h) (Homo sapiens, UniProt P51580); test: as above; type: biochemical; settings: read-out: % Inhibition of Control Values
T4 sequence (P51580 1-245): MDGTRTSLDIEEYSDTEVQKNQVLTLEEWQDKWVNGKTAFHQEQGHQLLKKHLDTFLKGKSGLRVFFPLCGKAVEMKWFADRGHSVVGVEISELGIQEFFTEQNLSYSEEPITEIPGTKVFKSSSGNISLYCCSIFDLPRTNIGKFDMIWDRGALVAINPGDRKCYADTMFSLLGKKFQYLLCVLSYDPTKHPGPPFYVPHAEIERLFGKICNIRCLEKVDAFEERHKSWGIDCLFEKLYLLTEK

USP 21 (h) = molecular target: T5, USP 21 (h) (Homo sapiens, UniProt Q9UK80); test: Epigenetic enzyme assay, Ubiquitin modifying enzymes; type: biochemical; settings: 10 μM; read-out: % Inhibition of Control Values
T5 sequence (Q9UK80 1-565): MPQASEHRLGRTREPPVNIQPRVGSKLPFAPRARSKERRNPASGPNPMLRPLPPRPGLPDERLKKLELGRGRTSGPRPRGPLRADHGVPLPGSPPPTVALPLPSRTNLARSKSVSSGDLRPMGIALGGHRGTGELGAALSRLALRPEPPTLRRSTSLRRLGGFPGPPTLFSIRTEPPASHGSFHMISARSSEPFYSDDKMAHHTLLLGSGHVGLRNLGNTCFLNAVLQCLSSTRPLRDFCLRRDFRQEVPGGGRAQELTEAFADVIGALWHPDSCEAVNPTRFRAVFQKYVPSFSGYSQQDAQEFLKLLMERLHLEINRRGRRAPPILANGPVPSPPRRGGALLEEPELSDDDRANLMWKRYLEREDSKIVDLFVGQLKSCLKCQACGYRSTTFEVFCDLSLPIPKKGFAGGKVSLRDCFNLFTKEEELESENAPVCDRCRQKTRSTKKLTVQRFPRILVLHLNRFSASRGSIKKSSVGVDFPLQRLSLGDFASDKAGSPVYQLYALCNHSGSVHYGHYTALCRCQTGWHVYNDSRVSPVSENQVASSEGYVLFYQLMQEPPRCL

Deacetylase, Histone 2 = molecular target: T6, Deacetylase, Histone 2 (Homo sapiens, UniProt Q92769); test: Deacetylase, Histone 2 (PanLab); type: biochemical
T6 construct: host or cells: Insect Sf9 cells
Method: (§1) The in vitro pharmacological studies were conducted by Eurofins PanLab (Taiwan) using the parameters shown in Table 13 with respect to appropriate literature references.

Myeloperoxidase = molecular target: T7, Myeloperoxidase (Homo sapiens, UniProt P05164); test: Myeloperoxidase; type: biochemical
T7 construct: Human PMN leukocytes; from tissue; host or cells: human PMN leukocytes
T7 sequence (P05164 49-745): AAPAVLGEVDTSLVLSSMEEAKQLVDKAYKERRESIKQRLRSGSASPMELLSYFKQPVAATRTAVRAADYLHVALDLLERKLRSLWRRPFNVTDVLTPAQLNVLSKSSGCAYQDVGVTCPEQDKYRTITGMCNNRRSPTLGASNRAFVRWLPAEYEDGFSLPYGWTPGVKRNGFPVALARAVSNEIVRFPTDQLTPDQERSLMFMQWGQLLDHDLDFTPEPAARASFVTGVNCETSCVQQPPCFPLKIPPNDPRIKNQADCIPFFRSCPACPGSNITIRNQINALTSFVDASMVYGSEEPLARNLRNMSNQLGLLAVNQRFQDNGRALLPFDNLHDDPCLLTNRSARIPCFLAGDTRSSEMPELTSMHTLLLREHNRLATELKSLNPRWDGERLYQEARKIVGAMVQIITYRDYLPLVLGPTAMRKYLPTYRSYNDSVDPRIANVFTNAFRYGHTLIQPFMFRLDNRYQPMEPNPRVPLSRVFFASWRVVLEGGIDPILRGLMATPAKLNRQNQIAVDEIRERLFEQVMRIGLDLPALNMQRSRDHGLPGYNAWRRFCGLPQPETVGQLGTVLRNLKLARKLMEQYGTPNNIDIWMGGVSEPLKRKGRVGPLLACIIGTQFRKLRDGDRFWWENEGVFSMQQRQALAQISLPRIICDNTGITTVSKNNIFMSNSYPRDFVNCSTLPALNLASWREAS
Method: as §1

SK-NEP-1 kidney = test: OncoPanel cell proliferation assay (10-day); type: cell-based; settings: Homo sapiens; for EC50: read-out: Cell Count EC50; for IC50: read-out: Cell Count IC50
[3] = assay year 2014, read-out: % Control Response
[4] = assay year 2015, read-out: % Control Response
[5] = SK-NEP-1, Kidney, read-out: Cell Count GI50

HDAC1 (h), sequence (Q13547 whole entry): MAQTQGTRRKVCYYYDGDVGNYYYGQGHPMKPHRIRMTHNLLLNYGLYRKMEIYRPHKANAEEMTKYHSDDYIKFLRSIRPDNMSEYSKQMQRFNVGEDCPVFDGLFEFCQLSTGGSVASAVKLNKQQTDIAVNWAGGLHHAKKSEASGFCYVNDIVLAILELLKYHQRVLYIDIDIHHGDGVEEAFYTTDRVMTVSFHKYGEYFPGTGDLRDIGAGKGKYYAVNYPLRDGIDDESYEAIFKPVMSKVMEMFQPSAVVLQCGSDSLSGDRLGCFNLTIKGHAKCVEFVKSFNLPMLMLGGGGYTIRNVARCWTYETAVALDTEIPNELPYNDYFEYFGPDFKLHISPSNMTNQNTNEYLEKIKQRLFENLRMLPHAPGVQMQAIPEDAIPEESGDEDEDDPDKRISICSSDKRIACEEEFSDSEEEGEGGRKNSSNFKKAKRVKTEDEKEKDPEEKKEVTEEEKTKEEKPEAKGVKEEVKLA
T6 sequence (Q92769 whole entry): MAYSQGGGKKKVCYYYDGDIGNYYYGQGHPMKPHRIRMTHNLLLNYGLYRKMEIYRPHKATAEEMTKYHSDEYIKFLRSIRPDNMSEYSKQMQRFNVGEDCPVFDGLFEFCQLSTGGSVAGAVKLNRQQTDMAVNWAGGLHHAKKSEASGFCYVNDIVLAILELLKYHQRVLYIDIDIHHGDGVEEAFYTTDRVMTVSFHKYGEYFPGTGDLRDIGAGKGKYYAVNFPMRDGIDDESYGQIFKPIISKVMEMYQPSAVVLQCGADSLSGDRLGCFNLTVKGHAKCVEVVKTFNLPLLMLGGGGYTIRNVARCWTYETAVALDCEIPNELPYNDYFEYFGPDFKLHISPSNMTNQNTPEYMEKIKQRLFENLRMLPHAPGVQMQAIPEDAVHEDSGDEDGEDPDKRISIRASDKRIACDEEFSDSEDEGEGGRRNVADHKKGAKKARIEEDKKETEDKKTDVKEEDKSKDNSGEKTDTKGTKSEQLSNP

With `CC(C)=CCC[C@H](CO)[C@@H]1CC[C@@H](C)c2c1cc(C)c(O)c2O` [Compound 1, 7,8,18-trihydroxyserrulat-14-ene] the inhibition at 10 µM (ATAD2B (h) bromodomain) was 52%, the inhibition at 10 µM (PHF20(1) Tudor domain) was 7% and the inhibition at 10 µM (H3K27 me3) was -8%. It also gave an inhibition at 10 µM (DNMT3b) of -3%, an inhibition at 10 µM (HDAC1 (h)) of -2% and an inhibition at 10 µM [1] of 55%. The inhibition at 10 µM [2] was 40%, the inhibition at 10 µM (USP 21 (h)) was -18% and the remaining activity at 10 µM (Deacetylase, Histone 2; [3]) was 56%. For the same molecule, the remaining activity at 10 µM (Deacetylase, Histone 2; [4]) was 34%, the “% Control Response” value (Myeloperoxidase; 10 μM, assay year 2014) was “inhibited the activity” and the remaining activity at 10 µM (Myeloperoxidase; [3]) was 52%. The remaining activity at 10 µM (Myeloperoxidase; [4]) was 27%, the GI50 (SK-NEP-1 kidney; SK-NEP-1, read-out: GI50) was 0.00618 µM and the EC50 (SK-NEP-1 kidney; SK-NEP-1, Kidney) was 0.01 µM. The GI50 (SK-NEP-1 kidney; [5]) was 0.006 µM and the IC50 (SK-NEP-1 kidney; SK-NEP-1, Kidney) was 0.01 µM.
`CC(C)=CCC[C@@H]1C(O)Oc2c(C)cc(O)c3c2[C@H]1CC[C@H]3C` (some centres unmarked) [Compound 2, 5,18-epoxyserrulat-14-en-8,18-diol] was tested, and the inhibition at 10 µM (ATAD2B (h) bromodomain) was 25%, the inhibition at 10 µM (PHF20(1) Tudor domain) was 2% and the inhibition at 10 µM (H3K27 me3) was -7%. The inhibition at 10 µM (DNMT3b) was -17%, the inhibition at 10 µM (HDAC1 (h)) was -1% and the inhibition at 10 µM [1] was 5%. For the same molecule, the inhibition at 10 µM [2] was 28%, the inhibition at 10 µM (USP 21 (h)) was 3% and the remaining activity at 10 µM (Deacetylase, Histone 2; [3]) was 44%. The remaining activity at 10 µM (Deacetylase, Histone 2; [4]) was 21%, the remaining activity at 10 µM (Myeloperoxidase; [3]) was 5% and the remaining activity at 10 µM (Myeloperoxidase; [4]) was 1%. It also gave a GI50 (SK-NEP-1 kidney; SK-NEP-1, read-out: GI50) of 0.0606 µM, an EC50 (SK-NEP-1 kidney; SK-NEP-1, Kidney) of 0.06 µM and a GI50 (SK-NEP-1 kidney; [5]) of 0.06 µM. The IC50 (SK-NEP-1 kidney; SK-NEP-1, Kidney) was 0.06 µM.
`CC(C)=CCC[C@@H]1COc2c(C)cc(O)c3c2[C@H]1CC[C@H]3C` [Compound 3, 5,18-epoxy-8-hydroxyserrulat-14-ene] was tested, and the inhibition at 10 µM (ATAD2B (h) bromodomain) was 28%, the inhibition at 10 µM (PHF20(1) Tudor domain) was 2% and the inhibition at 10 µM (H3K27 me3) was 0%. The inhibition at 10 µM (DNMT3b) was -4%, the inhibition at 10 µM (HDAC1 (h)) was -1% and the inhibition at 10 µM [1] was -11%. For the same molecule, the inhibition at 10 µM [2] was 19%, the inhibition at 10 µM (USP 21 (h)) was 3% and the remaining activity at 10 µM (Deacetylase, Histone 2; [4]) was 12%. The remaining activity at 10 µM (Myeloperoxidase; [4]) was -7%.
For `CC(C)=CCC[C@H](C)[C@@H]1CC[C@@H](C)c2c1cc(C)c(O)c2O` [Compound 4, 7,8-dihydroxyserrulat-14-ene], the EC50 (SK-NEP-1 kidney; SK-NEP-1, Kidney) was 9.62 µM, the GI50 (SK-NEP-1 kidney; [5]) was 9.62 µM and the IC50 (SK-NEP-1 kidney; SK-NEP-1, Kidney) was 9.63 µM.
For `Nc1ncnc2c1ncn2[C@@H]1O[C@H](CSCC[C@H](N)C(=O)O)[C@@H](O)[C@H]1O` [SAH], the IC50 (DNMT3b; read-out: Reference IC50) was 0.094 µM.
